3 compounds from patent US12459939B2 (SHANGHAI RINGENE BIOPHARMA CO., LTD., priority 2019, dated 2025) can be followed below.

The nature of series [1]: Metabolic stability in mouse liver microsomes. The format is in vitro ADME. To be noted: liver microsomes 0.5 mg/mL, NADPH, 1 μM compound, read-out: Mouse microsomal T1/2. Here is the method:
(§1) (1) Metabolic stability test: 150 μL of liver microsomes (final concentration was 0.5 mg/mL) were subjected to metabolic stability incubation, the system containing NADPH (final concentration was 1 mM), 1 μM of the test compound and the positive control midazolam or the negative control atenolol, the reaction was terminated with acetonitrile containing tinidazole at 0 min, 5 min, 10 min, and 30 min, respectively, then the mixture was vortexed for 10 min, and centrifuged at 15000 rmp for 10 min, 50 μL of the supernatant was injected into 96 well. The metabolic stability of the compound was calculated by measuring the relative reduction of the original drug. (See Table 3 for specific values)
(In general: Liver microsomes are a subcellular fraction often used to study metabolism.)

Series [2] can be described thus: Metabolic stability in rat liver microsomes. It is filed as in vitro ADME. To be noted: liver microsomes 0.5 mg/mL, NADPH, 1 μM compound, read-out: Rat microsomal T1/2. As for the experimental part: as §1
Series [3] in a line: Metabolic stability in dog liver microsomes. It is filed as in vitro ADME. To be noted: liver microsomes 0.5 mg/mL, NADPH, 1 μM compound, read-out: Dog microsomal T1/2. As for the experimental part:
as §1

The next series addresses T1, BRD4-BD1 (Homo sapiens, UniProt O60885).
T1 construct: purchased ReactionBiologyCorp; (RBC)
Briefly: BRD4 AlphaScreen determination (BD1). The following applies: AlphaScreen, protein binding inhibition; read-out: BRD4-BD1 IC50. The format is binding. Here is the method:
(§2) (1) 1× Assay buffer was prepared according to the kit requirements of ReactionBiologyCorp. (RBC). (2) Compound concentration gradient preparation: the test compounds were tested at final concentrations starting at 10 μM, with 10 concentrations at 3-fold dilution and single well test was set for each concentration. The positive control compound(+)-JQ-1 was tested at final concentrations starting at 1 μM, with 10 concentrations at 3-fold dilution, and duplicated well test was set for each concentration. The solution was gradient diluted to the corresponding 1000-fold final concentration in a 384-well Source plate, and then 20 nL of the solution was transferred to the 384-well reaction plate with Echo550 to be measured. 20 nL of 100% DMSO was transferred to the Max well, and the highest concentration of the positive compounds were transferred to the Min wells. […] (6) 5 μL of 4× peptide solution was added to each well of the reaction plate, centrifuged at 1000 rpm for 1 min. (7) 10 μL of the assay solution was added, centrifuged at 1000 rpm for 60 seconds, the solution was mixed with gentle shaking, and incubated at room temperature for 60 minutes. (8) Reading with EnVision. (9) The IC50 values of the compounds for protein binding inhibition was obtained by fitting the dose-effect curve with the analytical software GraphPad Prism 5. (See Table 1 for specific values)

Another series addresses T2, BRD4-BD2 (Homo sapiens, UniProt O60885).
T2 construct: purchased ReactionBiologyCorp; (RBC)
Nature of the series: BRD4 AlphaScreen determination (BD2). It is filed as binding. To be noted: AlphaScreen, protein binding inhibition; read-out: BRD4-BD2 IC50. As for the experimental part:
as §2
For orientation: In Alpha technology, singlet oxygen from a donor bead excites a nearby acceptor bead.

The test system of another series is MV4-11 cells. Briefly: Inhibition of proliferation of MV4-11 cells (CellTiter-Glo). The format is cell-based. The following applies: Homo sapiens, 72 h. Here is the method:
Specific experimental steps: 1) Day 0: 96 inoculated cells were digested with trypsin and suspended in cell culture medium, the cell density was detected by an automatic cell counter and the cells were diluted with the culture medium to a suitable density, 100 μL of cell suspension was added to the 96-well plate, and the cell-free medium was used as a control well, and the wells were incubated in a 37° C., 5% CO2 cell incubator overnight; 2) Day 1: A total of 8 concentrations of the compound to be tested in the drug-treated cells were tested at 3-fold dilution, 10 μM was the starting assay concentration of the compound to be tested. Specific steps: 200× compound mother liquor was prepared, the compound was diluted with culture medium to a final concentration of […], that is, 3 μL of 200× compound was added to 197 μL of culture medium, 50 μL diluted compound was added to each well of the 96-well plate, and placed at 37° C., 5% CO2 cell culture incubator for 72 h; 3) Day 4: Cell viability detection: 96-well cell plate was first equilibrated to room temperature, 40 μL of CellTiter-Glo® reagent was added to each well, mixed on a shaker for 2 minutes to fully lyse the cells, incubated at room temperature for 10 minutes to stabilize the luminescence signal, and the luminescence value was read by the Envision microplate reader; 4) data processing was performed by GraphPad Prism 5.0 software to analyze the data, and nonlinear S-curve regression was used to fit the data to obtain a dose-effect curve, and from which the ICso value was calculated. Inhibition rate %=(DMSO treated cell wells−compound treated cell wells)/(DMSO treated cell wells−cell free medium wells)×100. The ICso value was obtained by the four-parameter regression method using the random software in the microplate reader. (See Table 2 for specific values)

In series [4] the test system is most AML cell lines and prostate cancer cell lines. Briefly: Proliferation inhibition of different cell lines: AML and prostate cancer lines. The following applies: read-out: proliferation inhibitory activity IC50. It is filed as cell-based. Here is the method: (§3) The proliferation inhibitory activity of some of the embodiment compounds against different cell lines such as LNCAP (+R1881), SKM-1, 22RV1, DU145, MOLM13, MDA-PCA-2b, KASUMI 1, THP-1, KG-1, IEC6, H1299, etc., was tested using similar methods in test embodiment 2 and in the literature.

Series [5] relates to LNCAP, SKM-1, MOLM13, KASUMI 1, THP-1, KG-1. Nature of the series: Proliferation inhibition of different cell lines: most sensitive lines. It is filed as cell-based. The following applies: some cell lines such as LNCAP, read-out: proliferation inhibitory activity IC50. As for the experimental part: as §3
The subject of a further series is IEC6. Nature of the series: Proliferation inhibition of IEC6 cells. It is filed as cell-based. To be noted: Rattus norvegicus, IEC-6; IEC6 cell line; read-out: proliferation inhibitory activity IC50. As for the experimental part:
as §3

Another series deals with H1299. Briefly: Proliferation inhibition of H1299 cells. It is filed as cell-based. To be noted: Homo sapiens, NCI-H1299; H1299 cell line; read-out: proliferation inhibitory activity IC50. As for the experimental part: as §3
A short description of series [6]: In vivo pharmacokinetics in mice. The following applies: male, Balb c, mouse, plasma, po, 5 mg/kg. As for the experimental part:
Six male SPF-grade SD rats or Balb c mice (Shanghai B&K laboratory animals) were divided into two groups and the test compounds were configured into suitable solutions or suspensions; one group was administered intravenously and one group was administered orally. Blood was collected by jugular vein puncture, and each sample was collected about 0.2 mL/time point, heparin sodium was used for anticoagulation, the blood collection time points were as follows: before administration and 5, 15 and 30 minutes, 1, 2, 4, 6, 8 and 24 h after administration, the blood sample was collected and placed on ice, centrifuged to separate the plasma (centrifugation conditions: 8000 rpm, 6 minutes, 2-8° C.), and the collected plasma was stored at −80° C. before analysis. The plasma samples were analyzed by LC-MS/MS.
According to the blood drug concentration data of the drug, the pharmacokinetic calculation software WinNonlin5.2 non-compartmental model was used to calculate the pharmacokinetic parameters AUC0-t, AUC0-∞, MRT0-∞, Cmax, Tmax, T1/2 and Vd and other parameters and their mean and standard deviation. In addition, the bioavailability (F) was calculated by the following formula.
For samples with a concentration lower than the lower limit of quantification, when calculating the pharmacokinetic parameters, the samples sampled before reaching Cmax should be calculated as zero, and samples sampled after reaching Cmax should be calculated as unquantifiable (BLQ).

The test system of series [7] is MV 4-11 transplanted tumor. Nature of the series: Growth inhibition of MV 4-11 transplanted tumor in nude mice. The format is in vivo. The following applies: dose of 15 mpk, oral, daily. As for the experimental part:
The tumor tissue in vigorous growth stage was cut into about 1.5 mm^3 and inoculated subcutaneously in the right armpit of nude mice under sterile conditions. The diameter of subcutaneous transplanted tumor in nude mice was measured with vernier caliper, and the animals were randomly divided into groups when the average tumor volume was about 130 mm^3. […] During the whole experiment, the diameter of the transplanted tumor was measured twice a week, and the weight of mice was weighed at the same time. The calculation formula of tumor volume (TV) was: TV=½×a×b^2, wherein a and b represent the length and width respectively. The relative tumor volume (RTV) was calculated according to the measurement results, and the calculation formula was: RTV=VT/v0. Wherein VO is the tumor volume measured during the administration in cage (i.e., d0), and Vt is the tumor volume at each measurement.

Molecules are shown by their SMILES. Bounds are passed on as bounds.

`CCNC(=O)c1cc2c(=O)n(C)cc(-c3cc(C(C)(C)O)ccc3Oc3c(C)cc(F)cc3C)c2[nH]1`: the results for the half-life at 1 μM in series [1], in series [2] and in series [3] were 2.83 h, 2.8 h and 3.25 h, respectively.
Regarding `Cc1cc(F)cc(C)c1Oc1ccc(C(C)(C)O)cc1-c1cn(C)c(=O)c2cc(C(=O)NCC(F)F)[nH]c12` [Embodiment 11, N-(2,2-difluoroethyl)-7-(2-(4-fluoro-2,6-dimethylphenoxy)-5-(2-hydroxyprop-2-yl)phenyl)-5-methyl-4-oxo-4,5-dihydro-1H-pyrrolo[3,2-c] pyridine-2-amide], the IC50 on BRD4-BD1 was 109 nM; at BRD4-BD2, 0.57 nM; in the series on MV4-11 cells it was 20.4 nM; in [4], under 1000 nM; in series [5] it was under 100 nM; in the series with IEC6, over 1000 nM. The IC50 in the series with H1299 was over 1000 nM. For the same compound, the half-life at 1 μM in series [1] came to 0.65 h; in [2], 1.28 h; in series [3], 6.72 h.
As a reminder, the bioavailability is dose-corrected exposure relative to a reference, in per cent. A high value points to good availability. `CCNC(=O)c1cc2c(-c3cc(C(C)(C)O)ccc3Oc3c(C)cc(F)cc3C)cn(C)c(=O)c2[nH]1` [compound 1, N-ethyl-4-(2-(4-fluoro-2,6-dimethylphenoxy)-5-(2-hydroxyprop-2-yl)phenyl)-6-methyl-7-oxo-6,7-dihydro-1H-pyrrolo[2,3-c]pyridine-2-amide, reference compound] returned an IC50 with MV4-11 cells of 32 nM. Also, the results for the half-life at 1 μM in series [1], in series [2] and in series [3] were 0.317 h, 1.03 h and 1.13 h, respectively. In [6], this compound had a bioavailability of 25%. Further, in [7], the “inhibitory rate (growth of transplanted tumor)” value is recorded as “about 60%”.
